The values that follow come from US20250120920A1, “DRUG-DELIVERING NERVE WRAP” (UNIVERSITY OF UTAH RESEARCH FOUNDATION, priority 2019, published 2025).

The format of data set [1] is physicochemical. As for the experimental part:
The inventors discovered that FK506, in particular, is subject to thermal degradation beginning at about 140° C. when incorporated into the preferred polymers within the preferred loading ranges as disclosed herein. While conventional PLLA and PLLA co-polymer hot-melt extrusion protocols call for temperatures exceeding 140° C., limiting the maximum temperature still allows for sufficient manufacturability while minimizing or preventing unwanted thermal degradation of the FK506.

A further data set has as its system whole chick DRGs. In words: DRG neurite extension bioactivity verification assay. Type of data set: cell-based. The conditions noted are these: 20 ng/ml FK506 positive control; 72 hours culture. As for the experimental part: Fertilized chicken eggs (Merrills Poultry, ID, USA) were incubated at ˜39° C. under 100% relative humidity for 12 days. Dorsal root ganglions (DRG) were dissected from the embryos under a microscope. 24-well plates were coated with laminin (1 μg/ml), then 500 μL from each media sample was placed into 3 wells. DRGs were separated carefully from connective tissue for culturing and a single DRG was placed into each well. For comparison to known FK506 concentrations, DRGs were also grown in negative and positive control concentrations of FK506, 0 ng/ml and 20 ng/ml, respectively. Groups tested: 0 ng/ml FK506 (n=4), 20 ng/ml FK506 control (n=4), Day 4 collection of LD-Wrap (n=6), and Day 4 collection of HD-Wrap (n=8). amples were diluted in DMEM/F12+10% FBS and 1% Pen-Strep. HD-Wrap and LD-Wrap drug release test samples were diluted by a factor of 10 and 2, respectively. Drug release test samples average concentrations after dilution: Day 4 LD-Wrap—18.5 ng/ml FK506 and Day 4 HD-Wrap—23.1 ng/ml FK506. The plate was incubated for 72 hours at 37° C. and 5% CO2 to evaluate the released drug's bioactivity. […] Briefly, the area of the ganglion body (ADRG) and the total area of the DRG with the growing axons (Atot) were measured using ImageJ (ImageJ 1.31v, National Institutes of Health, Bethesda, USA). The average neurite length (lavg) was calculated by: lavg=(Atot/π)^1/2−(ADRG/π)^1/2. […]

Turning to `C=CC[C@@H]1/C=C(\C)C[C@H](C)C[C@H](OC)[C@H]2O[C@@](O)(C(=O)C(=O)N3CCCC[C@H]3C(=O)O[C@H](/C(C)=C/[C@@H]3CC[C@@H](O)[C@H](OC)C3)[C@H](C)[C@@H](O)CC1=O)[C@H](C)C[C@@H]2OC` [FK506], in data set [1], the “temperature at which thermal degradation begins” value was “about 140 °C”. For the same molecule, the Average neurite extension in the data set on whole chick DRGs was 720±72.2 μm.
